From patent US20160193148A1, “LIPOSOMAL FORMULATIONS FOR THE TREATMENT OF BACTERIAL INFECTIONS” (UNIVERSITY OF GEORGIA RESEARCH FOUNDATION, INC., priority 2013, published 2016)
Read-outs that look alike come from different tables or passages of the source. Marks after values point to notes of the source that are not given here.

Tests used:
[1] = simulation, Burton et al. 2013, cited from earlier work
[2] = Repeated dose IV LG or FG: indices of renal injury and tolerability in foals
Method: Subsequently, twelve healthy foals were administered either LG or FG at 6.6 mg/kg IV q 24 hours for 7 doses, and urinary protein, creatinine, γ-glutamyltransferase, and electrolytes were measured on days 0, 3 and 7 to quantify renal injury. Concentrations of gentamicin were measured using HPLC-MS.
Each dose was diluted in 250 ml of sterile 0.9% saline and administered over 15 minutes via an indwelling 14 G catheter placed in a jugular vein. Blood samples for plasma separation and measurement of gentamicin concentrations were obtained on day 1 and on day 7 at the times listed for study 1. Bronchoalveolar lavage fluid was collected 2, 6 and 24 hours after the end of infusion on day 7. Urine was collected the day prior to the first drug dose (day 0) and again 2 hours after the end of the infusion on days 3 and 7. Foals were sedated with xylazine hydrochloride (1.1 mg/kg bwt IV) and anesthetized with ketamine (2.2 mg/kg bwt IV) to allow passage of a urinary catheter using aseptic techniques. Urinalysis was performed and urine and concurrently obtained plasma samples were submitted for measurement of creatinine, γ-glutamyltransferase (GGT), protein, calcium, chloride, magnesium, sodium, and potassium concentrations. Fractional excretion of electrolytes, urinary GGT to creatinine ratio, and urinary protein to creatinine ratios were calculated. Prior to analysis for gentamicin concentration by LC-MS, urine and plasma samples were centrifuged at 400×g for 10 minutes and the supernatant was frozen at −80° C. until assayed.
Normality and equality of variance of the data were assessed with use of the Shapiro-Wilk and Levene tests, respectively. Data that were not normally distributed were log or rank transformed. The paired t test or the Wilcoxon rank sum test was used to compare IV pharmacokinetic variables between LF and FG. The effects of drug (LG vs FG), administration route (IV vs nebulized) and the interactions between drug and administration route on PELF and BAL cell pharmacokinetic variables were assessed using a two-way ANOVA for repeated measurement. For study 2, the effects of drug (LG vs FG), time (day 0, day 3, and day 7), and the interactions between drug and time on renal indices were assessed using a two-way ANOVA with one factor repetition (time). When warranted, multiple pairwise comparisons were done by use of the Holm-Sidak test. The paired t test or the Wilcoxon rank sum test was used to compare IV pharmacokinetic variables obtained on day 1 to those obtained on day 7. Significance was set at P<0.05.

[3] = repeated daily IV dosing, 6 foals per group

Substance: gentamicin sulfate [Free Gentamicin]
- predicted plasma concentration 1 hour after IV administration ([1]; at 4 weeks of age): 25.27 ± 9.52 µg/mL
- predicted plasma concentration 24 hours after administration ([1]; at 4 weeks of age): 0.20 ± 0.22 µg/mL
- predicted plasma concentration 1 hour after IV administration ([1]; at 12 weeks of age): 34.52 ± 14.11 µg/mL
- predicted plasma concentration 24 hours after administration ([1]; at 12 weeks of age): 0.26 ± 0.11 µg/mL
- FE Ca^2+ ([2]; Day 0 (before first dose)): 3.5 ± 3.4%
- FE Cl^− ([2]; Day 0 (before first dose)): 0.60 ± 0.29%
- FE K^+ ([2]; Day 0 (before first dose)): 10.1 ± 4.9%
- FE Mg^2+ ([2]; Day 0 (before first dose)): 13.9 ± 8.91%
- FE Na^+ ([2]; Day 0 (before first dose)): 0.28 ± 0.4^a %
- Plasma creatinine ([2]; Day 0 (before first dose)): 116.39 ± 20.48 µmol/L
- USG (urine specific gravity) ([2]; Day 0 (before first dose)): 1.003 ± 0.002
- Urine pH ([2]; Day 0 (before first dose)): 7.2 ± 0.7
- FE Ca^2+ ([2]; Day 3): 1.9 ± 1.1%
- FE Cl^− ([2]; Day 3): 0.6 ± 0.2%
- FE K^+ ([2]; Day 3): 18.4 ± 12.2%
- FE Mg^2+ ([2]; Day 3): 11.2 ± 6.5%
- FE Na^+ ([2]; Day 3): 0.12 ± 0.05^a %
- Plasma creatinine ([2]; Day 3): 120.81 ± 21.41 µmol/L
- USG (urine specific gravity) ([2]; Day 3): 1.008 ± 0.008
- Urine pH ([2]; Day 3): 6.3 ± 0.8
- difference from baseline (day 0) in urine pH ([2]; Day 3): −0.83*
- FE Ca^2+ ([2]; Day 7): 1.6 ± 1.4%
- FE Cl^− ([2]; Day 7): 0.78 ± 0.19%
- FE K^+ ([2]; Day 7): 16.8 ± 10.6%
- FE Mg^2+ ([2]; Day 7): 9.8 ± 4.7%
- FE Na^+ ([2]; Day 7): 0.27 ± 0.12^b %
- Plasma creatinine ([2]; Day 7): 117.87 ± 24.79 µmol/L
- USG (urine specific gravity) ([2]; Day 7): 1.002 ± 0.001
- Urine pH ([2]; Day 7): 6.3 ± 0.3
- difference from baseline (day 0) in urine pH ([2]; Day 7): −1.67*
- casts on urine sediment analysis ([2]; day 7, 6 foals per group): One foal
- mild self-limiting diarrhea during treatment [2, 3]: One foal
- thrombophlebitis [2, 3]: 2 foals
